Laboratory results reported in the kinase profiling compilation of Christmann-Franck et al. (2016).

Assays:
Assay in all cases: radiometric filter-binding kinase assay, Kinase HotSpot
Details in all cases: compound 0.5 µM; ATP 10 µM
CAMK2A (human) = CAMK2A (human) (UniProt Q9UQM7)
PRKCB2 (human) = PRKCB2 (human) (UniProt P05771)
IGF1R (human) = IGF1R (human) (UniProt P08069)
TSSK1B (human) = TSSK1B (human) (UniProt Q9BXA7)
PAK6 (human) = PAK6 (human) (UniProt Q9NQU5)
CSNK1G1 (human) = CSNK1G1 (human) (UniProt Q9HCP0)
MAP3K10 (human) = MAP3K10 (human) (UniProt Q02779)
CHUK (human) = CHUK (human) (UniProt O15111)
GRK5 (human) = GRK5 (human) (UniProt P34947)
GRK5 (human), sequence (P34947 whole entry, looked up): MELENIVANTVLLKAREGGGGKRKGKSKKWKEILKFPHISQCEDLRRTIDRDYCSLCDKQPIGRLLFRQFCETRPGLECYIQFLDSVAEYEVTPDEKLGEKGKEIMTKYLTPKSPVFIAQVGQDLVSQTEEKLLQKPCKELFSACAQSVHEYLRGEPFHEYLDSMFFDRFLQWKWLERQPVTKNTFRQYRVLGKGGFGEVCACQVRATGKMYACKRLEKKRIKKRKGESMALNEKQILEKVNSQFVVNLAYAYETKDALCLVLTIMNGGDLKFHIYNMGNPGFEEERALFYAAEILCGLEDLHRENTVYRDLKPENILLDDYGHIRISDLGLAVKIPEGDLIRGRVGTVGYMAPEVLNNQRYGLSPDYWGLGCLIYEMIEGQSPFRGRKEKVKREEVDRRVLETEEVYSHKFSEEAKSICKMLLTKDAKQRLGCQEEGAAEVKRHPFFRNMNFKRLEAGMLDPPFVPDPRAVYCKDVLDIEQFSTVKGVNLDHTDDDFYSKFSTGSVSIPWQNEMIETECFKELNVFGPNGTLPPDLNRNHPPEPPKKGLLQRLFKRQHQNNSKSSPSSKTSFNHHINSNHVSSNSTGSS

ABL2 (human) = ABL2 (human) (UniProt P42684)
PRKCI (human) = PRKCI (human) (UniProt P41743)
SRPK2 (human) = SRPK2 (human) (UniProt P78362)
GRK4 (human) = GRK4 (human) (UniProt P32298)
GRK4 (human), sequence (P32298 whole entry, looked up): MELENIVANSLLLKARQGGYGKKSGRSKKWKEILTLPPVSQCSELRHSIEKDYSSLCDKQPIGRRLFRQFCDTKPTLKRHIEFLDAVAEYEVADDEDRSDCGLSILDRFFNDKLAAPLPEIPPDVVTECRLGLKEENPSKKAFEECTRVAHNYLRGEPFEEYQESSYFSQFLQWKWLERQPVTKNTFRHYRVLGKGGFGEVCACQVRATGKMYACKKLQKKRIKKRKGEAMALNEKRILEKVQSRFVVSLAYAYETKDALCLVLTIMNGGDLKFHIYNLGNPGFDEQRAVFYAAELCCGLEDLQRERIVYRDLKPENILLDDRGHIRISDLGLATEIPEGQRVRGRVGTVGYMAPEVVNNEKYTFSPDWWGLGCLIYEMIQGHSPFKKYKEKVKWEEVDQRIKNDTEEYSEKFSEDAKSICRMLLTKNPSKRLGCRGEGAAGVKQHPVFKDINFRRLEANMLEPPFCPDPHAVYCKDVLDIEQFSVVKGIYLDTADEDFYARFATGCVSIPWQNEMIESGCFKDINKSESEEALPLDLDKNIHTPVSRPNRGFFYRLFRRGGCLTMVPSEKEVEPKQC

BTK (human) = BTK (human) (UniProt Q06187)
PDPK1 (human) = PDPK1 (human) (UniProt O15530)
MELK (human) = MELK (human) (UniProt Q14680)
MELK (human), sequence (Q14680 whole entry, looked up): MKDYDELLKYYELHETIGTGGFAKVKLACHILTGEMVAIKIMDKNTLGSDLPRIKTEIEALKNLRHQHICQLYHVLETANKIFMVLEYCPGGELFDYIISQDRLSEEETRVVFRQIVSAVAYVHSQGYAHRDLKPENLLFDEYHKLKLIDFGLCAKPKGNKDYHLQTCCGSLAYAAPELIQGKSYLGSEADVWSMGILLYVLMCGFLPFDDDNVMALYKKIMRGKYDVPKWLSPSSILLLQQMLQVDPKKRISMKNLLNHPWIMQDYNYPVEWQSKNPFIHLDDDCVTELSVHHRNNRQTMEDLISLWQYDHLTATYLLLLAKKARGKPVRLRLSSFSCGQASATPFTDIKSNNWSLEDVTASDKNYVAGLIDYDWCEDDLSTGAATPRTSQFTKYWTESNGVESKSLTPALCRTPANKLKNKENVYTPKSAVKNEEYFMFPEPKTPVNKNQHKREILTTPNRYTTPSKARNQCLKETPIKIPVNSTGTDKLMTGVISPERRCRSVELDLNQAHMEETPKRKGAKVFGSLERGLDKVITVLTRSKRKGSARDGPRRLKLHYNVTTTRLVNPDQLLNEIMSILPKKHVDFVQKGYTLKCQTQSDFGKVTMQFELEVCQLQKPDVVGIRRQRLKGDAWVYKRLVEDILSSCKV

NEK3 (human) = NEK3 (human) (UniProt P51956)
CDK1 CCNA2 (human) = CDK1 CCNA2 (human) (UniProt P06493+P20248)
CDK1 CCNA2 (human), sequence (P06493 whole entry, looked up): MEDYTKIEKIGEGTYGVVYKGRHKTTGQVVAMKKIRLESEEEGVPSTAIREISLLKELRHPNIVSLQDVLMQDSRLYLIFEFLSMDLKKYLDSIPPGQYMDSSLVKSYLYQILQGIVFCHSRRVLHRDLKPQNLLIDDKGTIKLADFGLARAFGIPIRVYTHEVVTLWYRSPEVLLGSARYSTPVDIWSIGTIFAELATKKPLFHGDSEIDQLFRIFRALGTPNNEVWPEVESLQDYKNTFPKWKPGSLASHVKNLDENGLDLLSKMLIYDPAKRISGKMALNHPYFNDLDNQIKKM
CDK1 CCNA2 (human), sequence (P20248 whole entry, looked up): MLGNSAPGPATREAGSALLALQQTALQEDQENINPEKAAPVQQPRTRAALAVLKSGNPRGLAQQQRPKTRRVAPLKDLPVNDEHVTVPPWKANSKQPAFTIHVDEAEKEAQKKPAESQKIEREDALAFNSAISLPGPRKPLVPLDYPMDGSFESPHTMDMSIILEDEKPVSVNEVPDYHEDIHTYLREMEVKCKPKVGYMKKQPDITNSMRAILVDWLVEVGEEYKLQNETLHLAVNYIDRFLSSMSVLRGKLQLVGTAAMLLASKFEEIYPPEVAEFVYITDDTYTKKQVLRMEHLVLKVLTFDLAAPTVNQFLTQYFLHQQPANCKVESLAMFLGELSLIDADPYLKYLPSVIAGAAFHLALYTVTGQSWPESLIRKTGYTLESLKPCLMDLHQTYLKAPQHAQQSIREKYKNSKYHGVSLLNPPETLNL

STK33 (human) = STK33 (human) (UniProt Q9BYT3)
KIT (human) = KIT (human) (UniProt P10721)
MAPKAPK5 (human) = MAPKAPK5 (human) (UniProt Q8IW41)
NEK6 (human) = NEK6 (human) (UniProt Q9HC98)
MINK1 (human) = MINK1 (human) (UniProt Q8N4C8)
TGFBR1 (human) = TGFBR1 (human) (UniProt P36897)
DYRK3 (human) = DYRK3 (human) (UniProt O43781)
PRKD2 (human) = PRKD2 (human) (UniProt Q9BZL6)
ACVRL1 (human) = ACVRL1 (human) (UniProt P37023)
ACVRL1 (human), sequence (P37023 whole entry, looked up): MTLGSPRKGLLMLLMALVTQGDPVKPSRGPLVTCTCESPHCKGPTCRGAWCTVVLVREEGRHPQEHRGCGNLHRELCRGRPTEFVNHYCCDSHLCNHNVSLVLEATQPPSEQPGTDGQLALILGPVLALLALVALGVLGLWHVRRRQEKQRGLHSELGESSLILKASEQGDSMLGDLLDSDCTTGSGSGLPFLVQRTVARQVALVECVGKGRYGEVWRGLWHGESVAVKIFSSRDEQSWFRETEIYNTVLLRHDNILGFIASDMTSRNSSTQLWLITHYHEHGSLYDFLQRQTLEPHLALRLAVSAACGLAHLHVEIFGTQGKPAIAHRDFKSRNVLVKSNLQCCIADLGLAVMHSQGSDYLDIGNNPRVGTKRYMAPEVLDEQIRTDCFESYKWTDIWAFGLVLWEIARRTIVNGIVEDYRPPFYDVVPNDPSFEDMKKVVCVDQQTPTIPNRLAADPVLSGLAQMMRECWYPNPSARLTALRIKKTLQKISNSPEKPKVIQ

SRPK3 (human) = SRPK3 (human) (UniProt Q9UPE1)
MKNK2 (human) = MKNK2 (human) (UniProt Q9HBH9)
CDK2 CCNE1 (human) = CDK2 CCNE1 (human) (UniProt P24941+P24864)
NTRK2 (human) = NTRK2 (human) (UniProt Q16620)
CAMK1 (human) = CAMK1 (human) (UniProt Q14012)
HIPK2 (human) = HIPK2 (human) (UniProt Q9H2X6)
CDK2 CCNA2 (human) = CDK2 CCNA2 (human) (UniProt P24941+P20248)
CDK2 CCNA2 (human), sequence (P20248 whole entry, looked up, other chains not shown): as the sequence (P20248 whole entry, looked up) above

PRKG2 (human) = PRKG2 (human) (UniProt Q13237)
PRKG2 (human), sequence (Q13237 whole entry, looked up): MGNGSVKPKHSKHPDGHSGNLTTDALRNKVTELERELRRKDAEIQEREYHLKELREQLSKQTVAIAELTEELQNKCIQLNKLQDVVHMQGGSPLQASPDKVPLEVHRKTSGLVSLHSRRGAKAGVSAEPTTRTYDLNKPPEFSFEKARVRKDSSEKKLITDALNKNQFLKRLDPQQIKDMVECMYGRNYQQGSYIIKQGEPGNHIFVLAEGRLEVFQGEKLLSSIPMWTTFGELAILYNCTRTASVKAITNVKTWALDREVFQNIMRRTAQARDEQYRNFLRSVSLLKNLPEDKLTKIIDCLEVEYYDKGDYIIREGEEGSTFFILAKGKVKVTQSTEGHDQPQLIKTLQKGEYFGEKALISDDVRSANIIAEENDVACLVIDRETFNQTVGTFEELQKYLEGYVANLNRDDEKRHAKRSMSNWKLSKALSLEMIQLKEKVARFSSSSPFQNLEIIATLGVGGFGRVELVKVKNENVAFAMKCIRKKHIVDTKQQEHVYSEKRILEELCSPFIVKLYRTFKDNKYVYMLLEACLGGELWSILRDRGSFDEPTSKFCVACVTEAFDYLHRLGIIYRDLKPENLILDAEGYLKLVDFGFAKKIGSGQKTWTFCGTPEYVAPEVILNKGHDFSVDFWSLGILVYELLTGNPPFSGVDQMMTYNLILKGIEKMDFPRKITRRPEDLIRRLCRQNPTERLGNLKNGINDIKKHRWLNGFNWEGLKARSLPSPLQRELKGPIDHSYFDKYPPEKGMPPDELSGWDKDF

MAPK10 (human) = MAPK10 (human) (UniProt P53779)
EPHA5 (human) = EPHA5 (human) (UniProt P54756)
MAPK1 (human) = MAPK1 (human) (UniProt P28482)
CDK7 CCNH MNAT1 (human) = CDK7 CCNH MNAT1 (human) (UniProt P50613+P51948+P51946)
CDK7 CCNH MNAT1 (human), sequence (P50613 whole entry, looked up): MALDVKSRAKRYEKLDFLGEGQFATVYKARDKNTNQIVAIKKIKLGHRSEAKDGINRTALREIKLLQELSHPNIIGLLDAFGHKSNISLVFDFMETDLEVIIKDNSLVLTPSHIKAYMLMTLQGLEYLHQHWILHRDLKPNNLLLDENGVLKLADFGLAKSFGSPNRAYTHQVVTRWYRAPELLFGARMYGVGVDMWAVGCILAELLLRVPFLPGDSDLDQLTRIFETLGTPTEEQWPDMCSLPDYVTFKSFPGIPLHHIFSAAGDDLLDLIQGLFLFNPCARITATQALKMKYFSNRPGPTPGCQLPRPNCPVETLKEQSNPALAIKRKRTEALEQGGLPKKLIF
CDK7 CCNH MNAT1 (human), sequence (P51946 whole entry, looked up): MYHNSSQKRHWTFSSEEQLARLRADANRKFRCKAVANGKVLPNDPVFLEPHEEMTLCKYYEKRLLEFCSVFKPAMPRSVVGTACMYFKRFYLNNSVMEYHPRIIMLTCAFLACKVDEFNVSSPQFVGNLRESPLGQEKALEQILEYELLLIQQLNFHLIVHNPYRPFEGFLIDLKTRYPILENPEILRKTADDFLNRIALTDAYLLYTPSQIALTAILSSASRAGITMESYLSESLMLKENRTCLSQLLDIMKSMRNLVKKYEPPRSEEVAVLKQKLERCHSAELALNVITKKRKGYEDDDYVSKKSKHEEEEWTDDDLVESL
CDK7 CCNH MNAT1 (human), sequence (P51948 whole entry, looked up): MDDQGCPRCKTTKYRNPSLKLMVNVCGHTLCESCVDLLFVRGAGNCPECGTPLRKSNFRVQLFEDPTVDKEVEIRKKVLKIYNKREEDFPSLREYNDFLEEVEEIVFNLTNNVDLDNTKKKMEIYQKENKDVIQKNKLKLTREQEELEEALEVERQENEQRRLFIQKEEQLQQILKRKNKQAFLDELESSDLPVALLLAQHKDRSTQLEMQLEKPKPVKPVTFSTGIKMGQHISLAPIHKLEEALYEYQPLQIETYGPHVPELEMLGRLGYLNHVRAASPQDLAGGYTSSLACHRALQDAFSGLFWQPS

MAP4K2 (human) = MAP4K2 (human) (UniProt Q12851)
CAMK4 (human) = CAMK4 (human) (UniProt Q16566)
AKT2 (human) = AKT2 (human) (UniProt P31751)

## CCCNC(=O)Nc1ccc(Oc2ncnc3cc(OC)c(OC)cc23)cc1Cl
CAMK2A (human)
  residual activity: 97.5%
PRKCB2 (human)
  residual activity: 93.6%
IGF1R (human)
  residual activity: 77%
TSSK1B (human)
  residual activity: 80.4%
PAK6 (human)
  residual activity: 106%
CSNK1G1 (human)
  residual activity: 97.1%
MAP3K10 (human)
  residual activity: 103%
CHUK (human)
  residual activity: 84.9%
GRK5 (human)
  residual activity: 105%
ABL2 (human)
  residual activity: 90.5%
PRKCI (human)
  residual activity: 93%
SRPK2 (human)
  residual activity: 91.1%
GRK4 (human)
  residual activity: 94.4%
BTK (human)
  residual activity: 98.6%
PDPK1 (human)
  residual activity: 86.8%
MELK (human)
  residual activity: 86.8%
NEK3 (human)
  residual activity: 93.8%
CDK1 CCNA2 (human)
  residual activity: 97.7%
STK33 (human)
  residual activity: 88.1%
KIT (human)
  residual activity: 39.2%
MAPKAPK5 (human)
  residual activity: 92.2%
NEK6 (human)
  residual activity: 105%
MINK1 (human)
  residual activity: 90.1%
TGFBR1 (human)
  residual activity: 102%
DYRK3 (human)
  residual activity: 99.7%
PRKD2 (human)
  residual activity: 94.3%
ACVRL1 (human)
  residual activity: 100%
SRPK3 (human)
  residual activity: 95.8%
MKNK2 (human)
  residual activity: 81.3%
CDK2 CCNE1 (human)
  residual activity: 95.2%
NTRK2 (human)
  residual activity: 102%
CAMK1 (human)
  residual activity: 96.7%
HIPK2 (human)
  residual activity: 97.9%
CDK2 CCNA2 (human)
  residual activity: 92.8%
PRKG2 (human)
  residual activity: 97%
MAPK10 (human)
  residual activity: 100%
EPHA5 (human)
  residual activity: 81.8%
MAPK1 (human)
  residual activity: 101%
CDK7 CCNH MNAT1 (human)
  residual activity: 119%
MAP4K2 (human)
  residual activity: 83.1%
CAMK4 (human)
  residual activity: 99.1%
AKT2 (human)
  residual activity: 89.7%

## Nc1nc(Nc2ccc(S(N)(=O)=O)cc2)nn1C(=S)Nc1c(F)cccc1F
CAMK2A (human)
  residual activity: 14.3%
PRKCB2 (human)
  residual activity: 74.5%
IGF1R (human)
  residual activity: 0.625%
TSSK1B (human)
  residual activity: 13.7%
PAK6 (human)
  residual activity: 81.9%
CSNK1G1 (human)
  residual activity: 16.7%
MAP3K10 (human)
  residual activity: 3%
CHUK (human)
  residual activity: 54.4%
GRK5 (human)
  residual activity: 75.6%
ABL2 (human)
  residual activity: 10.5%
PRKCI (human)
  residual activity: 78.9%
SRPK2 (human)
  residual activity: 17.1%
GRK4 (human)
  residual activity: 92.2%
BTK (human)
  residual activity: 84.1%
PDPK1 (human)
  residual activity: 19.3%
MELK (human)
  residual activity: 32.7%
NEK3 (human)
  residual activity: 19.6%
CDK1 CCNA2 (human)
  residual activity: -0.154%
STK33 (human)
  residual activity: 35.1%
KIT (human)
  residual activity: 78.4%
MAPKAPK5 (human)
  residual activity: 52.2%
NEK6 (human)
  residual activity: 78.8%
MINK1 (human)
  residual activity: 3.06%
TGFBR1 (human)
  residual activity: 81.8%
DYRK3 (human)
  residual activity: 98.5%
PRKD2 (human)
  residual activity: 9.05%
ACVRL1 (human)
  residual activity: 15.1%
SRPK3 (human)
  residual activity: 48.7%
MKNK2 (human)
  residual activity: 17.2%
CDK2 CCNE1 (human)
  residual activity: 8.92%
NTRK2 (human)
  residual activity: 11.8%
HIPK2 (human)
  residual activity: 62.1%
CDK2 CCNA2 (human)
  residual activity: 1.56%
PRKG2 (human)
  residual activity: 61.4%
MAPK10 (human)
  residual activity: 105%
EPHA5 (human)
  residual activity: 56.7%
MAPK1 (human)
  residual activity: 76.2%
CDK7 CCNH MNAT1 (human)
  residual activity: 43.6%
MAP4K2 (human)
  residual activity: 2.13%
CAMK4 (human)
  residual activity: 98.8%
AKT2 (human)
  residual activity: 103%

## Nc1nc(Nc2ccc(S(N)(=O)=O)cc2)nn1C(=O)c1c(F)cccc1F
CAMK2A (human)
  residual activity: 104%
PRKCB2 (human)
  residual activity: 90.5%
IGF1R (human)
  residual activity: 86.9%
TSSK1B (human)
  residual activity: 85.5%
PAK6 (human)
  residual activity: 101%
MAP3K10 (human)
  residual activity: 77.8%
CHUK (human)
  residual activity: 99%
GRK5 (human)
  residual activity: 85.9%
ABL2 (human)
  residual activity: 53.9%
PRKCI (human)
  residual activity: 87.6%
SRPK2 (human)
  residual activity: 54.9%
GRK4 (human)
  residual activity: 94.7%
BTK (human)
  residual activity: 87.1%
PDPK1 (human)
  residual activity: 92.3%
MELK (human)
  residual activity: 87.2%
NEK3 (human)
  residual activity: 92.6%
CDK1 CCNA2 (human)
  residual activity: 10.3%
STK33 (human)
  residual activity: 74.4%
KIT (human)
  residual activity: 81.7%
MAPKAPK5 (human)
  residual activity: 80.3%
NEK6 (human)
  residual activity: 102%
MINK1 (human)
  residual activity: 98.1%
TGFBR1 (human)
  residual activity: 104%
DYRK3 (human)
  residual activity: 101%
PRKD2 (human)
  residual activity: 86%
ACVRL1 (human)
  residual activity: 88.5%
SRPK3 (human)
  residual activity: 86.2%
MKNK2 (human)
  residual activity: 95.9%
CDK2 CCNE1 (human)
  residual activity: 7.15%
NTRK2 (human)
  residual activity: 42.8%
CAMK1 (human)
  residual activity: 90.4%
HIPK2 (human)
  residual activity: 72.8%
CDK2 CCNA2 (human)
  residual activity: 2.21%
PRKG2 (human)
  residual activity: 92.2%
MAPK10 (human)
  residual activity: 100%
EPHA5 (human)
  residual activity: 92.2%
MAPK1 (human)
  residual activity: 98.4%
CDK7 CCNH MNAT1 (human)
  residual activity: 81.1%
MAP4K2 (human)
  residual activity: 58.4%
CAMK4 (human)
  residual activity: 96.8%
AKT2 (human)
  residual activity: 107%
